Values quoted from earlier work as cited in patent publication US20110029296A1, “Metabolic analysis apparatus and metabolic analysis method” (FUJITSU LIMITED, priority 2009, published 2011).

Molecular target: CYP2E1 (Homo sapiens, UniProt P05181)
Sequence (P05181 whole entry, species assumed): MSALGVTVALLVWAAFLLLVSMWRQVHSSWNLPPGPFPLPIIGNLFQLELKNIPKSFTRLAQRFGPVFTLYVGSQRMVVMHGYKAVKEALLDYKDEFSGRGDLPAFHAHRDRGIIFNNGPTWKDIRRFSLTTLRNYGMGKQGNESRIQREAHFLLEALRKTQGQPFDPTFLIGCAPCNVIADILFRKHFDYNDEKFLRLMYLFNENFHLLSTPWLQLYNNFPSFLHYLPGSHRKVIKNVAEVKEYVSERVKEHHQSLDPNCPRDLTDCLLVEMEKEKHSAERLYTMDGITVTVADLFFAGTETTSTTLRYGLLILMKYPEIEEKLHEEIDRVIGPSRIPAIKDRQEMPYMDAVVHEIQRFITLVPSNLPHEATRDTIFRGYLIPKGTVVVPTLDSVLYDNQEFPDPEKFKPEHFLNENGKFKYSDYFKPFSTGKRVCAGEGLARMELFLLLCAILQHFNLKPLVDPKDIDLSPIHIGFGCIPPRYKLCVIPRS

## Nc1cc2c3ccccc3ccc2c2ccccc12 [6-aminochrysene]
Forms a complex with CYP2E1
  metabolism by CYP2E1: not metabolized by CYP2E1
Inhibition by the amino group
  effect on the metabolic reaction of CYP2E1: inhibitor which inhibits the metabolic reaction of CYP2E1
